Test results as given in US5436252A, “5-aryl-3H-1,2,4-triazol-3-ones and their use in the treatment of neurodegenerative disorders” (Merrell Dow Pharmaceuticals Inc., priority 1990, dated 1995).
Where two headings read alike, the source gives them in different places.

Assays:
[1] = Antagonism of Quinolinic Acid Induced Seizures (clonic-tonic seizures after icv quinolinic acid); format: in vivo, mice; conditions: for responders at 64 mg/kg / ED50: Mus musculus; for responders at 64 mg/kg: 64 mg/Kg IP, animals protected/tested, quinolinic acid 7.7 μg icv, read-out: Mice Protected 64 mg/Kg IP
[2] = Hippocampal neurodegeneration after carotid artery occlusion (CA1 damage score); format: in vivo, Male mongolian gerbils
Text: Male mongolian gerbils (Tumblebrook Farms) weighing 45 to 60 gms were used for the experiments measuring hippocampal neurodegeneration after carotid artery occlusion. The gerbils were housed in small groups and allowed ad lib access to food and water prior to surgery. Following administration of drug, the gerbils were anesthetized with halothane (3.5%) and prepared for surgery.
An incision was made in the midline region of the neck and both carotid arteries were exposed and isolated from surrounding tissue. In sham operated animals the wounds were then closed and the animals were allowed to recover. In the hypoxic group the isolated carotid arteries were occluded for 5 minutes with 7 mm Mayfield aneurysm clips. Loss of blood flow to the cortex was confirmed by observation with an opthalmoscope of the blanching of the radial arteries in the retina of the ipsilateral eye. After 5 minutes the clips were removed and the gerbils were placed in their home cages and allowed to recover. After 7 days the gerbils were sacrificed by an overdose of chloral hydrate and perfused intracardially with 10 ml of 1% […] followed by 15 ml of 10% buffered formalin. […] Damage to the CA1 region was assessed by 3 observers who were blind to the previous treatment of the gerbil. This damage was assessed according to the scale below. […]

[3] = mice; background; cited from earlier work
[4] = gerbils; background; cited from earlier work
[5] = administration to rodents; background; cited from earlier work
[6] = 0.5 h, IP, 30', read-out: ED50 IP

Compound `COc1ccc(-c2nn(C)c(=O)n2C)cc1OC1CCCC1` has a responders at 64 mg/kg [1] of 60%.

Work on `Cn1nc(-c2ccccc2Cl)n(C)c1=O` [2-ClC6 H4, CH3, CH3] yielded a responders at 64 mg/kg [1] of 60%.

For `Cn1c(-c2ccccc2Cl)n[nH]c1=O` [2-ClC6 H4, H, CH3, 5-(2-chlorophenyl)-2,4-dihydro-4-methyl-3H-1,2,4-triazol-3-one], the ED50 [1, 6] was 64.9 mg/kg, the responders at 64 mg/kg [1] was 60% and the ED50 ([1]; IP, 2 hr, read-out: ED50 IP) was > 64 mg/kg.

With `CCn1nc(-c2cccs2)n(C)c1=O` [2-Thienyl, C2 H5, CH3, 5-(2-thienyl)-2,4-dihydro-2-ethyl-4-methyl-3H-1,2,4-triazol-3-one] the ED50 ([1]; IP, range, time not given, printed near the Mice Protected column, read-out: ED50 IP) was 8 to 64 mg/kg.

With `Cn1c(-c2ccc(Cl)c(Cl)c2)n[nH]c1=O` [3,4-Cl2 C6 H3, H, CH3, 5-(3,4-dichlorophenyl)-2,4-dihydro-4-methyl-3H-1,2,4-triazol-3-one] the “Mice Protected” value ([1]; @ 32 mg/Kg IP, (60')) was 5/10, the ED50 [1, 6] was < 8 mg/kg and the ED50 ([1]; PO, time not given, read-out: ED50 PO) was > 16 mg/kg.

Compound `COc1ccc(-c2n[nH]c(=O)n2C)cc1OC1CCCC1` [3-(cyclo-C5 H9 O)--4-CH3 OC6 H3, H, CH3] has a responders at 64 mg/kg [1] of 20%.

With `CCCCOc1cc(-c2nn(C)c(=O)n2C)ccc1OC` [3-(n-C4 H9 O)--4-CH3 OC6 H3, CH3, CH3] the responders at 64 mg/kg [1] was 60%.

Work on `CCCCOc1cc(-c2n[nH]c(=O)n2C)ccc1OC` [3-(n-C4 H9 O)--4-CH3 OC6 H3, H, CH3, 5-[3-(n-butoxy)-4-methoxyphenyl]-2,4-dihydro-4-methyl-3H-1,2,4-triazol-3-one] yielded a responders at 64 mg/kg [1] of 70%.

`CCn1c(-c2ccc(Cl)cc2)nn(C)c1=O` [4-ClC6 H4, CH3, C2 H5, 5-(4-Chlorophenyl)-2,4-dihydro-4-ethyl-2-methyl-3H-1,2,4-triazol-3-one] gave an ED50 [1, 6] of 25.9 mg/kg, an ED50 ([1]; 0.5 h, PO, 30', read-out: ED50 PO) of 29.9 mg/kg and an ED50 ([1]; 1 h, IP, 60', read-out: ED50 IP) of 17.2 mg/kg. For the same compound, the ED50 ([1]; IP, 2 hr, read-out: ED50 IP) was 39.2 mg/kg, the ED50 ([1]; PO, 4 hr, read-out: ED50 PO) was 52.3 mg/kg and the ED50 ([1]; PO, 24 hr, read-out: ED50 PO) was > 128 mg/kg. It also gave a reduction of damage ([2]; 40 mg/kg i.p.) of 66%.

With `Cn1nc(-c2ccc(Cl)cc2)n(C)c1=O` [4-ClC6 H4, CH3, CH3, 5-(4-chlorophenyl)-2,4-dihydro-2,4-dimethyl-3H-1,2,4-triazol-3-one] the responders at 64 mg/kg [1] was 80%.

Compound `CCn1c(-c2ccc(Cl)cc2)n[nH]c1=O` [4-ClC6 H4, H, C2 H5, 5-(4-Chlorophenyl)2,4-dihydro-4-ethyl-3H-1,2,4-triazol-3-one] has an ED50 [1, 6] of 51 mg/kg.

With `Cn1c(-c2ccc(Cl)cc2)n[nH]c1=O` [4-ClC6 H4, H, CH3] the responders at 64 mg/kg [1] was 60%.

Compound `Cn1c(-c2ccncc2)n[nH]c1=O` [4-Pyridyl, H, CH3, 2,4-Dihydro-4-methyl-5-(4-pyridinyl)-3H-1,2,4-triazol-3-one] has a responders at 64 mg/kg [1] of 30%.

`CCn1nc(-c2ccccc2)n(C)c1=O` [C6 H5, C2 H5, CH3] gave a responders at 64 mg/kg [1] of 50%.

With `Cn1nc(-c2ccccc2)n(C)c1=O` [C6 H5, CH3, CH3] the responders at 64 mg/kg [1] was 50%.

Compound `Cn1c(-c2ccccc2)n[nH]c1=O` [C6 H5, H, CH3] has a responders at 64 mg/kg [1] of 50%.

For `C[C@]12N[C@H](Cc3ccccc31)c1ccccc12` [MK-801, (S)-10,11-dihydro-5-methyl-5H-dibenzo(a,d)cyclohepten-5,10-imine], the “reduction of apparent damage” value ([2]; 5 mg/kg, 30 minutes prior to ligation) is given as 28%, the “antagonism of quinolinic acid seizures (in words)” value [3] is given as “antagonize the seizures induced in mice by quinolinic acid” and the “antagonism of hippocampal neurodegeneration (in words)” value [4] is given as “antagonize hippocampal neurodegeneration after carotid artery occlusion in gerbils”.

For `C=C(C)[C@H]1CN[C@H](C(=O)O)[C@H]1CC(=O)O` [kainic acid], the “neuronal degeneration (in words)” value [5] is listed as “shown to cause neuronal degeneration”.

For `O=C(O)c1cccnc1C(=O)O` [quinolinic acid, reference compound], the “clonic-tonic seizures caused in otherwise untreated mice” value ([1]; 7.7 μg in 5 μl saline icv) is listed as 90-100% and the “neuronal degeneration (in words)” value [5] is listed as “shown to cause neuronal degeneration”.

For `N[C@@H](Cn1oc(=O)[nH]c1=O)C(=O)O` [quisqualic acid], the “neuronal degeneration (in words)” value [5] is listed as “shown to cause neuronal degeneration”.
